In patent US5220042A, “1,4-benzoquinone derivatives and benzene derivatives, and process for preparing the same” (priority 1984, dated 1993):
Like-named read-outs stand apart in the source and are kept apart here.

Test system: SRS-A release from lung fragments
Assay: Inhibition of SRS-A release from sensitized guinea pig lung fragments
Assay type: cell-based, guinea pig (Hartley strain)
Settings: Cavia porcellus
Protocol: Inhibitory activities on the release of SRS-A and histamine of the present compounds were determined.
A male guinea pig (Hartley strain) (body weight: about 300 g) was sensitized by a method according to P. Anderson: "Int. Archs. Allergey appln. Immunol., Vol. 64, pages 249-258 (1981). Thus, 30 mg/kg of cyclophosphamide was intraperitoneally administered to the guinea pig, and 2 days after 1 microgram of ovalbumin (manufactured by Sigma Chemical Co., St. Louis, Mo. U. S. A.) together with 10 mg of aluminium hydroxide gel were intraperitoneally administered so as to have the animal sesitized.
50 Days after the sesitization, the animal was killed by exsanguination, and the lung was isolated from the animal and was perfused with 20 ml of Tyrode's solution, then immersed in an ice-cooled Tyrode's solution. The parenchyma of the lung was cut by using McIlwain-type tissue chopper to make it into fragments of lung having 2 mm square and the fragments were washed with Tyrode's solution. 400 Milligrams of sectiles of lung were suspended in 3.6 ml of Tyrode's solution, and this suspension was preincubated at 37° C. for 5 minutes, then 4 microliters of dimethyl sulfoxide solution of the test compound, in the case of control 4 microliters of dimethyl sulfoxide alone was added to the suspension. 5 Minutes after, 0.4 ml of 100 micrograms/ml of ovalbumin solution added so as to release SRS-A for 10 minutes. The suspension was ice-cooled and filtered through gauze, the filtrate was centrifuged at 2,000 rpm for 10 minutes and the supernatant was collected. The supernatant was stored in freezed state at -80° C. until bio-assay was conducted.
Amounts of SRS-A and histamine contained in the supernatant were determined by bio-assay using ileum of guinea pig.
A piece of the ileum (2-3 cm of length) positioned from 15-25 cm from the opening portion of ileocecum was isolated from a male guinea pig (Hartley strain) (body weight: 400-600 g) which was fasted for 24 hours. The piece of ileum was hanged vertically in a Magnus tube which was filled with 10 ml of Tyrode's solution containing 10^-7 M of atropine sulfate under air stream conditions. The isotonic contraction of the piece of the ileum was measured at 0.5 g of load by using an isotonic transducer "TD-112S" (manufactured by Nihon Koden Co., Ltd.). The measurements were carried out after the reaction to histamine of the piece of ileum was kept constant. Bioassay of histamine was measured by using the value of contraction shown in 30 seconds after the addition of the supernatant. Bioassay of on SRS-A was measured by using the value of contraction shown at 2 minutes after the addition of the supernatant in the presence of 10^-6 M of pyrilamine (manufactured by Sigma Chemical Co.), and compared with the standard curve of crude SRS-A released from the fragments of the lung.

[1] = Table 2B, read-out: Inhibitory activities on SRS-A (%)
[2] = Table 2, dose 3 μM, read-out: Inhibition ratio (%) SRS-A
[3] = Table 2, dose 30 μM, read-out: Inhibition ratio (%) SRS-A
[4] = Table 2B, 3 μM, read-out: Inhibitory activities on SRS-A (%)
[5] = Table 2B, 30 μM, read-out: Inhibitory activities on SRS-A (%)

| Compound | inhibition at 1 µM [1] | inhibition at 10 µM [1] | inhibition at 3 µM [2] | inhibition at 30 µM [3] | inhibition at 3 µM [4] | inhibition at 30 µM [5] |
| --- | --- | --- | --- | --- | --- | --- |
| CCCCC#CCCCC1=C(OC)C(=O)C(CCCCCC2=C(OC)C(=O)C=C(OC)C2=O)=C(OC)C1=O [Test Compound No. 39, 2,5 Dimethoxy-3-(4-nonynyl)-6-[5-(2,5-dimethoxy-1,4-benzoquinon-3-yl)pentyl]-1,4-benzoquinone] | 0% | 11% |  |  |  |  |
| COC1=CC(=O)C(OC)=C(OCCCOC2=C(OC)C(=O)C=C(OC)C2=O)C1=O [Test Compound No. 42, 2,2'-Trimethylenedioxybis(3,6-dimethoxy-1,4-benzoquinone)] | 28.4% | 80% |  |  |  |  |
| COC1=CC(=O)C(OC)=C(CCCCCCCCCC#CCCCCCCCCCC2=C(OC)C(=O)C=C(OC)C2=O)C1=O [Test Compound No. 21, 2,2'-(10-Eicosynylene)bis(3,6-dimethoxy-1,4-benzoquinone)] |  |  | -21.7% | 16.6% | -21.7% | 16.6% |
| CCOC(=O)C1=C(OC)C(=O)C(CCCCCC2=C(OC)C(=O)C(CCO)=C(OC)C2=O)=C(OC)C1=O [Test Compound No. 50, 1-(2,5-Dimethoxy-3-ethoxycarbonyl-1,4-benzoquinon-6-yl)-5-[2,5-dimethoxy-3-(2-hydroxyethyl)-1,4-benzoquinon-6-yl]pentane] | 14.8% | 41.7% |  |  |  |  |
| COC1=CC(=O)C(OC)=C(CCCSSCCCC2=C(OC)C(=O)C=C(OC)C2=O)C1=O [Test Compound No. 28, Bis[(3,6-dimethoxy-1,4-benzoquinon-2-yl)propyl] disulfide] | 30.5% | 85.2% |  |  |  |  |
| CC1=C(C)C(=O)C(CCCCCC2=C(C)C(=O)C(C)=C(C)C2=O)=C(C)C1=O [Test Compound No. 55, 2,2'-Pentamethylenebis(3,5,6-trimethyl-1,4-benzoquinone)] | 13.2% | 38.7% |  |  |  |  |
| COC1=CC(=O)C(OC)=C(CC2=C(OC)C(=O)C=C(OC)C2=O)C1=O [compound 22] | 37.6% | 85.4% |  |  |  |  |
| COC1=C(CCO)C(=O)C(OC)=C(CCCCCC2=C(OC)C(=O)C(SC)=C(OC)C2=O)C1=O [Test Compound No. 49, 1-(2,5-Dimethoxy-3-methylthio-1,4-benzoquinon-6-yl)-5-[2,5-dimethoxy-3-(2-hydroxyethyl)-1,4-benzoquinon-6-yl]pentane] | -0.4% | 65.2% |  |  |  |  |
| COC1=CC(=O)C(OC)=C(COCC2=C(OC)C(=O)C=C(OC)C2=O)C1=O [Test Compound No. 26, Bis[(3,6-Dimethoxy-1,4-benzoquinon-2-yl)methyl] ether] |  |  |  |  | 10.9% | 39.8% |
| COC1=CC(=O)C(OC)=C(CCCCCC2=C(OC)C(=O)C(SC)=C(OC)C2=O)C1=O [Test Compound No. 43, 1-(2,5-Dimethoxy-1,4-benzoquinon-3-yl)-5-(2,5-dimethoxy-3-methylthio-1,4-benzoquinon-6-yl)pentane] | 23.2% | 79.4% |  |  |  |  |
| COC1=CC(=O)C(OC)=C(CCCCC2=C(OC)C(=O)C=C(OC)C2=O)C1=O [Test Compound No. 24, 2,2'-Tetramethylenebis(3,6-dimethoxy-1,4-benzoquinone)] | 36.1% | 67.7% |  |  |  |  |
| CCOC(=O)C1=C(OC)C(=O)C(CCCCCC2=C(OC)C(=O)C=C(OC)C2=O)=C(OC)C1=O [Test Compound No. 44, 1-(2,5-Dimethoxy-1,4-benzoquinon-3-yl)-5-(2,5-dimethoxy-3-ethoxycarbonyl-1,4-benzoquinon-6-yl)pentane] | -10.5% | 18.6% |  |  |  |  |
| COc1cc(OC(C)=O)c(OC)c(CCCCCc2c(OC)c(OC(C)=O)cc(OC)c2OC(C)=O)c1OC(C)=O [Test Compound No. 37, 1,5-bis[1,4-Diacetoxy-2,5-(dimethoxy)phen-3-yl]-pentane] |  |  |  |  | 69.2% | 90% |
| NC1=CC(=O)C(N)=C(CCCCCC2=C(N)C(=O)C=C(N)C2=O)C1=O [Test Compound No. 52, 2,2'-Pentamethylenebis(3,6-diamino-1,4-benzoquinone)] | 10% | 16.2% |  |  |  |  |
| COC1=CC(=O)C(OC)=C(CCCCCC2=C(OC)C(=O)C(CCCCCC3=C(OC)C(=O)C=C(OC)C3=O)=C(OC)C2=O)C1=O [Test Compound No. 41, 2,5-Dimethoxy-3,6-bis[5-(2,5-dimethoxy-1,4-benzoquinon-3-yl)-entyl]-1,4-benzoquinone] | 4.1% | 25% |  |  |  |  |
| COC1=CC(=O)C(OC)=C(CCCCCCCC#CCCCCCCCC2=C(OC)C(=O)C=C(OC)C2=O)C1=O [Test Compound No. 20, 2,2'-(8-Hexadecynylene)bis(3,6-dimethoxy-1,4-benzoquinone)] |  |  | 14.5% | 24.1% | 14.5% | 24.1% |
| CCOC(=O)C1=C(OC)C(=O)C(CCCCCC2=C(OC)C(=O)C(C(=O)OCC)=C(OC)C2=O)=C(OC)C1=O [Test Compound No. 46, 2,2'-Pentamethylenebis(3,6-dimethoxy-5-ethoxycarbonyl-1,4-benzoquinone)] | 18.2% | 16.2% |  |  |  |  |
| CCCCC1=C(OC)C(=O)C(CCCCCC2=C(OC)C(=O)C(CCO)=C(OC)C2=O)=C(OC)C1=O [Test Compound No. 47, 1-(2,5-Dimethoxy-3-butyl-1,4-benzoquinon-6-yl)-[2,5-dimethoxy-3-(2-hydroxyethyl)-1,4-benzoquinon-6-yl]pentane] | 15.8% | 47.6% |  |  |  |  |
| COC1=CC(=O)C(OC)=C(CCCCCSCCCCCC2=C(OC)C(=O)C=C(OC)C2=O)C1=O [Test Compound No. 29, Bis[(3,6-dimethoxy-1,4-benzoquinon-2-yl)-pentyl]sulfide] | 19.6% | 60.5% |  |  |  |  |
| COC1=C(CCO)C(=O)C(OC)=C(CCCCCC2=C(OC)C(=O)C(OC)=C(OC)C2=O)C1=O [Test Compound No. 48, 1-(2,3,5-Trimethoxy-1,4-benzoquinon-6-yl)-5-[2,5-dimethoxy-3-(2-hydroxyethyl)-1,4-benzoquinon-6-yl]pentane] | 37.6% | 89.4% |  |  |  |  |
| CCCCC#CCCCC1=C(OC)C(=O)C=C(OC)C1=O [Test Compound No. 35, 2,5-Dimethoxy-3-(4-nonynyl)-1,4-benzoquinone] |  |  |  |  | 64.9% | 96% |
| COC1=CC(=O)C(OC)=C(CCCC2=C(OC)C(=O)C=C(OC)C2=O)C1=O [Test Compound No. 27, 2,2'-Trimethylenebis(3,6-dimethoxy-1,4-benzoquinone)] | 14.9% | 83.3% |  |  |  |  |
| COCOc1cc(OC)c(OCOC)c(CCCCCc2c(OC)c(OCOC)cc(OC)c2OCOC)c1OC [Test Compound No. 36, 1,5-bis[1,4-Dimethoxy-2,5-bis(methoxymethoxy)-phen-3-yl]pentane] |  |  |  |  | 12.1% | 24.5% |
| COC1=CC(=O)C(OC)=C(CCCCCC2=C(OC)C(=O)C(CCO)=C(OC)C2=O)C1=O [Test Compound No. 40, 2,5-Dimethoxy-3-(2-hydroxyethyl)-6-[5-(2,5-dimethoxy-1,4-benzoquinon-3-yl)pentyl]-1,4-benzoquinone] | 38.2% | 91.7% |  |  |  |  |
